Results: patent publication US20260001868A1, “HETEROCYCLIC COMPOUND CAPABLE OF INHIBITING PRMT5-MTA AND USE THEREOF” (Xizang Haisco Pharmaceutical Co., Ltd., priority 2022, published 2026)
Like-named read-outs stand apart in the source and are kept apart here.

Key:
[1] = target: PRMT5⋅MTA (Homo sapiens (Human), UniProt O14744); test: PRMT5 MTA enzyme activity test (Alpha detection); assay type: biochemical; settings: PRMT5/MEP50 1 nM with MTA 1 μM
Protocol: (§1) 1× test buffer (10 mM Tris, 1 mM DTT, 0.01% BSA, 0.01% Tween-20, adjusted to pH 8.0) was prepared. The test compound was dissolved in DMSO to prepare a 10 mM mother liquor, and the mother liquor was diluted to a 100-fold final concentration. 100 nL of the compound was added to each well of the administration group, and 100 nL of DMSO solution was added to blank wells and negative control wells. Then, 5 μL of a solution of PRMT5/MEP50 (BPS, Cat #31921) (final concentration: 1 nM) and MTA (final concentration: 1 μM) was added to the wells of the administration group and negative control wells, and 5 μL of 1× test buffer was added to the blank wells. Incubation was performed at room temperature for 15 minutes. […] 1× Epigenetics buffer (PerkinElmer, Cat #AL008F) was prepared and used for diluting acceptor microbeads and donor microbeads. 15 μL of acceptor microbeads (final concentration: 10 μg/mL; PerkinElmer, Cat #AL150C) and donor microbeads (final concentration: 10 μg/mL; PerkinElmer, Cat #AS106M) were added and incubated at room temperature for 1 hour in the dark. Then, detection was performed using the Alpha module of the reader Enspire microplate.
Based on the obtained data, the inhibition rate was calculated in Excel according to: inhibition rate (%)=(maximum value negative control−detection signal value)/(maximum value negative control−minimum value blank control)×100, and IC50 values were fitted by using XL-Fit.

[2] = target: PRMT5/MEP50 (Homo sapiens (Human), UniProt O14744); test: PRMT5 enzyme activity test (Alpha detection); assay type: biochemical; settings: PRMT5/MEP50 1 nM, absence of MTA
Protocol: as §1, with “a” for “a solution of”, “#31921) enzyme solution” for “#31921)”, “nM)” for “nM) and MTA (final concentration: 1 μM)”, “microplate. Based on the obtained data, the inhibition rate was calculated in Excel according to: inhibition rate (%)=(maximum value negative control−detection signal value)/(maximum value negative control−minimum value blank control)×100, and IC50 values were fitted by using XL-Fit.” for “microplate.”

[3] = system: MIAPACA-2 cells; test: MIAPACA-2 cell proliferation inhibition experiment; assay type: cell-based
Description: (§2) The chemiluminescence readings were detected by a microplate reader.

[4] = system: HCT-116 cells; test: HCT-116 cell proliferation inhibition experiment; assay type: cell-based
Description: as §2

[5] = system: SDMA production in HCT-116 cells; test: SDMA detection in HCT-116 cells; assay type: cell-based; settings: 3 days incubation
Protocol: HCT-116 cells were cultured in an RPMI 1640 culture medium (ATCC, Cat #30-2001; supplemented with 10% FBS and 1% double antibody) until the confluence reached about 85%, and then the cells were plated. The culture medium was discarded, and the cells were rinse with 1×PBS and digested by trypsin (Gibco, Cat #15400-054). When the cells became round and began to fall off, the digestion was terminated by adding the culture medium. The cells were pipetted, transferred to a sterile centrifuge tube and centrifuged at 1000 rpm for 3 minutes, and after the centrifugation, the supernatant was discarded. The cells were resuspended by adding the culture medium to the centrifuge tube and then counted. According to the counting results, the cell suspension was adjusted to an appropriate concentration and poured into a loading slot. 100 μL of the cell suspension was added to each well of the 96-well plate. The compound was dissolved in DMSO to 10 mM and stored for later use. […] 100 μL of the Immobilon Forte Western HRP substrate (Millipore, Cat #WBLUF0500) was added to each well and incubated with shaking for 15 minutes, followed by chemiluminescence detection using the BMG microplate reader. After data normalization (SDMA reading/SMD3 reading), Graphpad Prism 8.3.0 software was used to plot the data, and the IC50 value was calculated.

[6] = set-up: species or system beagle dogs; settings: dog, in vivo
Protocol: 10.1 Experimental animals: male beagle dogs, about 8-11 kg, 6 beagle dogs/compound, purchased from Beijing Marshall Biotechnology Co., Ltd.
10.2 Experimental method: On the day of the experiment, (6× number of test compounds (n)) beagle dogs were randomly divided into groups according to their body weights. The animals were fasted but with water available for 12 to 14 h one day before the administration and were fed 4 h after the administration. Administration was carried out according to Table 8.
Before and after the administration, 1 mL of blood was taken from the jugular veins or limb veins, and placed in an EDTAK2 centrifuge tube. Centrifugation was performed at 5000 rpm at 4° C. for 10 min, and the plasma was collected. The blood collection time points for the intravenous administration group and intragastric administration group were 0 min, 5 min, 15 min, 30 min, 1 h, 2 h, 4 h, 6 h, 8 h, 10 h, 12 h and 24 h. Before analysis and detection, all samples were stored at −80° C., and a quantitative analysis of samples was performed using LC-MS/MS.

[7] = system: HCT-116 MTAP−/− cells
Protocol: HCT-116 MTAP^−/− cells were cultured in an RPMI 1640 culture medium (ATCC, Cat #30-2001; supplemented with 10% FBS and 1% double antibody) until the confluence reached about 85%, and then the cells were plated. The culture medium was discarded, and the cells were washed with 1×PBS and digested by trypsin (Gibco, Cat #15400-054). When the cells became round and began to fall off, the digestion was terminated by adding the culture medium. The cells were pipetted, transferred to a sterile centrifuge tube and centrifuged at 1000 rpm for 3 minutes, and after the centrifugation, the supernatant was discarded. The cells were resuspended by adding the culture medium to the centrifuge tube and then counted. According to the counting results, the cell suspension was adjusted to an appropriate concentration and poured into a loading slot. The cell suspension was added to a first 96-well plate (Corning, Cat #3903), and added to 10 wells (as Day 0 wells) in a second 96-well plate. The compound was dissolved in DMSO to 10 mM and stored for later use. […] The chemiluminescence readings were detected by a microplate reader. The cell proliferation inhibition rate was calculated according to the following formula: [1−(25×T test−T0/25×T control−T0)]×100, and then the GI50 value of the compound for inhibiting cell proliferation was calculated using the DoseResp function and the Origin 9.2 software.

[8] = system: SDMA production in HCT-116 MTAP−/− cells; settings: read-out: HCT-116 MTAP−/− SDMA (IC50); 3 days incubation
Protocol: HCT-116 MTAP−/− cells were cultured in an RPMI 1640 culture medium (ATCC, #30-2001; supplemented with 10% FBS and 1% double antibody) until the confluence reached about 85%, and then the cells were plated. The culture medium was discarded, and the cells were rinse with 1×PBS and digested by trypsin (Gibco, Cat #15400-054). When the cells became round and began to fall off, the digestion was terminated by adding the culture medium. The cells were pipetted, transferred to a sterile centrifuge tube and centrifuged at 1000 rpm for 3 minutes, and after the centrifugation, the supernatant was discarded. The cells were resuspended by adding the culture medium to the centrifuge tube and then counted. According to the counting results, the cell suspension was adjusted to an appropriate concentration and poured into a loading slot. 100 μL of the cell suspension was added to each well of the 96-well plate. The compound was dissolved in DMSO to 10 mM and stored for later use. […] 100 μL of the Immobilon Forte Western HRP substrate (Millipore, Cat #WBLUF0500) was added to each well and incubated with shaking for 15 minutes, followed by chemiluminescence detection using the BMG microplate reader. After data normalization (SDMA reading/SMD3 reading), Graphpad Prism 8.3.0 software was used to plot the data, and the IC50 value was calculated.

[9] = Homo sapiens, MIA PaCa-2, 120 h, read-out: MIAPACA-2 (day 5 GI50)
[10] = day 5, read-out: MIAPACA-2 (day 5 GI50)
[11] = day 10, read-out: MIAPACA-2 (day 10 GI50)

Chain of PRMT5⋅MTA (O14744 whole entry): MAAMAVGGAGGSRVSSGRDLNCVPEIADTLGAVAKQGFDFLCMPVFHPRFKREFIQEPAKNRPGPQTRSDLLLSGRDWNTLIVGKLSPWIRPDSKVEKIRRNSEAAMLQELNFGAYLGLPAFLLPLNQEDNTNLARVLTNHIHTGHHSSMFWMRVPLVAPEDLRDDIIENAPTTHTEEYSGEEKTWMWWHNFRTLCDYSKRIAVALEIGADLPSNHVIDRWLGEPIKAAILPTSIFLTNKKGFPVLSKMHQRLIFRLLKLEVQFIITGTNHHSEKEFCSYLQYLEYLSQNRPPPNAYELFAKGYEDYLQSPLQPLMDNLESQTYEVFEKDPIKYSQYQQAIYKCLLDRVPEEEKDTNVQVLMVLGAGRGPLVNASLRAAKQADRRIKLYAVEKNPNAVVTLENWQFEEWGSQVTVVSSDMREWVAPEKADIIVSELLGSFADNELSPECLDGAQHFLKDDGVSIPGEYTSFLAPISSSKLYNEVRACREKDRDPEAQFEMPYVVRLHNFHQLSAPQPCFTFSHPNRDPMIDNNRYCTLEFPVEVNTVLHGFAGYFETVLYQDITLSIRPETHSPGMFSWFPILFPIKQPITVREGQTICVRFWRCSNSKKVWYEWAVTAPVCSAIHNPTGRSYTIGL
Chain of PRMT5⋅MTA (Q9BQA1 whole entry partner): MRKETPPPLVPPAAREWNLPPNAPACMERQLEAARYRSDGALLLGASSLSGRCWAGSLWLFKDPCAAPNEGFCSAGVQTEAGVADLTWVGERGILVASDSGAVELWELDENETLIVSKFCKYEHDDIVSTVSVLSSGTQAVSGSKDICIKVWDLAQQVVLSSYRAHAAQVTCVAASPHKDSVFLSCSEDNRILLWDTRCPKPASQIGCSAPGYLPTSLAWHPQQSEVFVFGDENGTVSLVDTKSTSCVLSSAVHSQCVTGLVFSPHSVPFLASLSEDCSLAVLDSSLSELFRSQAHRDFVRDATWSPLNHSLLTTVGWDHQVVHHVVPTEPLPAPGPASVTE
Chain of PRMT5/MEP50 (O14744 whole entry): as the sequence (O14744 whole entry) above
Chain of PRMT5/MEP50 (Q9BQA1 whole entry partner): as the sequence (Q9BQA1 whole entry partner) above

Structure (SMILES) | GI50 [3, 9] [nM] | GI50 [3, 10] [nM] | IC50 ([1]; read-out: PRMT5•MTA) [nM] | IC50 [2] [nM] | GI50 [3, 11] [nM] | other results
Cn1ncc(-c2ccc3c(=O)[nH]cc(CN)c3c2)c1-c1c(F)c(Cl)cc(OC2CC2)c1C#N [Compound 1, 2-(4-(4-(aminomethyl)-1-oxo-1,2-dihydroisoquinolin-6-yl)-1-methyl-1H-pyrazol-5-yl)-4-chloro-6-cyclopropoxy-3-fluorobenzonitrile] | – | – | 1 to 10 | 10 to 50 | – | –
Cn1ncc(-c2cc(N3CCC3)c3c(=O)[nH]nc(CN)c3c2)c1-c1c(F)c(Cl)cc(OC2CC2)c1C#N [Compound 22, 2-(4-(4-(aminomethyl)-8-(azetidin-1-yl)-1-oxo-1,2-dihydrophthalazin-6-yl)-1-methyl-1H-pyrazol-5-yl)-4-chloro-6-cyclopropoxy-3-fluorobenzonitrile] | < 50 | – | – | – | – | –
C=Cc1cc(-c2cnn(C)c2-c2c(F)c(Cl)cc(OC3(C)CC3)c2C#N)cc2c(CN)n[nH]c(=O)c12 [Compound 30, (2R)-2-(4-(4-(aminomethyl)-1-oxo-8-vinyl-1,2-dihydrophthalazin-6-yl)-1-methyl-1H-pyrazol-5-yl)-4-chloro-3-fluoro-6-(1-methylcyclopropoxy)benzonitrile] | – | < 50 | < 1 | 1 to 10 | < 50 | IC50 ([1]; read-out: IC50 value for PRMT5⋅MTA): 0.8 nM; GI50 ([4]; day 5, read-out: HCT-116 (day 5 GI50)): > 500 nM; GI50 ([4]; day 10, read-out: HCT-116 (day 10 GI50)): > 500 nM; IC50 [5]: 499 nM; CL ([6]; iv, 5 mg/kg): 0.313 mL/min/kg; AUC0-t ([6]; po, 10 mg/kg): 178.458 µg·h/mL; T1/2 ([6]; po, 10 mg/kg): 16.1 h; GI50 ([7]; read-out: HCT-116 MTAP−/− (day 5 GI50), day 5): 38.2 nM; GI50 ([7]; read-out: HCT-116 MTAP−/− (day 10 GI50), day 10): 19.9 nM; IC50 [8]: 3.39 nM

Now from value to molecule, other results behind:

GI50 [3, 9] [nM] | GI50 [3, 10] [nM] | Structure (SMILES) | IC50 ([1]; read-out: PRMT5•MTA) [nM] | IC50 [2] [nM] | GI50 [3, 11] [nM] | other results
< 50 | – | Cn1ncc(-c2ccc3c(=O)[nH]c(CN)nc3c2)c1-c1c(F)c(Cl)cc(OC2CC2)c1C#N [Compound 5, 2-(4-(2-(aminomethyl)-4-oxo-3,4-dihydroquinazolin-7-yl)-1-methyl-1H-pyrazol-5-yl)-4-chloro-6-cyclopropoxy-3-fluorobenzonitrile] | – | – | – | GI50 ([3]; Homo sapiens, MIA PaCa-2, 240 h, read-out: MIAPACA-2 (day 10 GI50)): < 50 nM
– | < 50 | Cn1ncc(-c2ccc3c(=O)[nH]c(CN)nc3c2)c1-c1c(F)c(Cl)cc(OC2CC2)c1C#N [Compound 11, (2S)-2-(4-(2-(aminomethyl)-4-oxo-3,4-dihydroquinazolin-7-yl)-1-methyl-1H-pyrazol-5-yl)-4-chloro-6-cyclopropoxy-3-fluorobenzonitrile] | – | – | < 50 | –
– | < 50 | Cn1ncc(-c2ccc3c(=O)[nH]c(CN)nc3c2)c1-c1c(F)c(Cl)cc(OC2(C)CC2)c1C#N [Compound 14, (2S)-2-(4-(2-(aminomethyl)-4-oxo-3,4-dihydroquinazolin-7-yl)-1-methyl-1H-pyrazol-5-yl)-4-chloro-3-fluoro-6-(1-methylcyclopropoxy)benzonitrile] | – | – | – | –
